Experimental data reported in patent US8883793B2, “Tubulin inhibitors and methods of using the same” (Development Center for Biotechnology, priority 2010, dated 2014).

How the values were obtained:
[1] = tested on: porcine brain tubulin; assay: Tubulin polymerization assay; assay type: biochemical; settings: at 10 μM concentration
Protocol: In vitro tubulin polymerization assay was performed by using the Tubulin Polymerization Assay Kit (Cytoskeleton, Inc., Denver, Colo.) in a 96-well format, which used the polymerization of porcine brain tubulin in vitro in the presence of varying concentrations of the test compounds. Fluorescence measurements were obtained at 1-minute intervals over a 31-minute period. Fluorescent measurements were performed using excitation at 365 nm, and emission was measured at 440 nm using a Packard Fusion Alpha Microplate Analyzer. Data were analyzed as relative fluorescent units by GraphPad Prism 5 Demo.

[2] = tested on: KB cell; assay: MTS assay, growth inhibition of KB cells; assay type: cell-based; settings: Homo sapiens, at 10 μM concentration, incubated for 72 h, read-out: Inhibition rate (%) (growth inhibition rate of MTS assay)
Method in brief: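 KB cells were allowed 24 h to attach before a 72 h exposure to compound at 10 μM. Viability was measured by MTS/PMS reduction, with absorbance read at 490 nm after 3 h. Values are reported as percent growth inhibition.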

[3] = tested on: biotinylated tubulin; assay: Colchicine competitive-binding assay; settings: at 10 μM concentration, 3H-colchicine; for Inhibition rate (%) (colchicine competitive-binding): right column pair of Table 7; for binding rate (%) (colchicine competitive-binding): left column pair of Table 7
Protocol: The colchicine competitive-binding assay was done by using the Colchicine Site competitive Assay Kit (Cytoskeleton, Inc.), streptavidin-coated yttrium SPA beads(GE Healthcare, Inc.), and ^3H-colchicine(PerkinElmer, Inc.). Briefly, the binding mixture includes 1 μL^3H-labeled ligand (specific activity […]), and 1 μg biotinylated tubulin and 88 μg SPA beads in 200 μL assay buffer. The test compound and ^3H-labeled ligand were added before tubulin. After incubation at 37° C. for 2 hours, the SPA beads were allowed to settle down for 24 hours at room temperature, and scintillation counting was done on the TopCount Microplate Scintillation Counter.

SMILES | Inhibition rate (%) of tubulin polymerization [1] | inhibition at 10 µM [2] | Inhibition rate (%) (colchicine competitive-binding) [3] | binding rate (%) (colchicine competitive-binding) [3]
COc1ccc(Sc2ccc(NC(=O)CCc3ccccc3)nc2)cc1 [Compound 84, N-[5-(4-Methoxy-phenylsulfanyl)-pyridin-2-yl]-3-phenyl-propionamide] | 50.3% | 94.7% | 88.0% | –
COc1cccc(-c2cnc(NC(=O)CCc3ccccc3)nc2)c1OC [Compound 102, N-[5-(2,3-Dimethoxy-phenyl)-pyrimidin-2-yl]-3-phenyl-propionamide] | 58.6% | 94.5% | 59.2% | –
O=C(CCc1ccccc1)Nc1ccc(-n2ccc3ccccc32)cn1 [Compound 79, N-(5-Indol-1-yl-pyridin-2-yl)-3-phenyl-propionamide] | 53.2% | 73.7% | 90.0% | –
Cc1ccc(CCC(=O)Nc2ncc(-c3ccc(N(C)C)cc3)cc2C)o1 [Compound 120, N-[5-(4-Dimethylamino-phenyl)-3-methyl-pyridin-2-yl]-3-(5-methyl-furan-2-yl)-propionamide] | 51.8% | 85.9% | 97.5% | –
O=C(CCc1ccccc1)Nc1ncc(-c2ccccc2)cn1 [Compound 94, 3-Phenyl-N-(5-phenyl-pyrimidin-2-yl)-propionamide] | 55.2% | 97.4% | 82.9% | –
COc1ccc(Sc2cnc(NC(=O)CCc3ccc(C)o3)s2)cc1 [Compound 71, N-[5-(4-Methoxy-phenylsulfanyl)-thiazol-2-yl]-3-(5-methyl-furan-2-yl)-propionamide] | 60.1% | 94.4% | – | 86.0%
Cc1ccc(CCC(=O)Nc2ccc(-c3ccc(F)cc3)cn2)o1 [Compound 112, N-[5-(4-Fluoro-phenyl)-pyridin-2-yl]-3-(5-methyl-furan-2-yl)-propionamide] | 76.9% | 96.2% | 87.8% | –
COc1ccc(Sc2ccc(NC(=O)CCc3ccc(C)o3)nc2)cc1 [Compound 83, N-[5-(4-Methoxy-phenylsulfanyl)-pyridin-2-yl]-3-(5-methyl-furan-2-yl)-propionamide] | 64.7% | 95.2% | 91.9% | –
Cc1ccc(CCC(=O)Nc2ccc(Br)cn2)o1 [Compound 123, N-(5-Bromo-pyridin-2-yl)-3-(5-methyl-furan-2-yl)-propionamide] | 85.6% | 95.8% | 78.4% | –
COc1ccc(Cc2cnc(NC(=O)CCc3cccnc3)s2)cc1 [Compound 10, N-[5-(4-Methoxy-benzyl)-thiazol-2-yl]-3-pyridin-3-yl-propionamide] | 88.7% | 94.4% | – | 88.6%
COc1ccc(Cc2cnc(NC(=O)CCc3cccnc3)s2)cc1OC [Compound 17, N-[5-(3,4-Dimethoxy-benzyl)-thiazol-2-yl]-3-pyridin-3-yl-propionamide] | 65.3% | 95.9% | – | 76.9%
Cc1ccc(CCC(=O)Nc2ccc(SCc3ccccc3)cn2)o1 [Compound 85, N-(5-Benzylsulfanyl-pyridin-2-yl)-3-(5-methyl-furan-2-yl)-propionamide] | 54.0% | 76.8% | 92.6% | –
COc1ccc(Sc2cnc(NC(=O)CCc3ccccc3)s2)cc1 [Compound 69, N-[5-(4-Methoxy-phenylsulfanyl)-thiazol-2-yl]-3-phenyl-propionamide] | 50.5% | 87.6% | – | 85.2%
Cc1ccc(CCC(=O)Nc2ccc(-c3ccccc3)cn2)o1 [Compound 111, 3-(5-Methyl-furan-2-yl)-N-(5-phenyl-pyridin-2-yl)-propionamide] | 72.7% | 65.1% | 96.4% | –
O=C(CCc1ccccc1)Nc1ncc(Cc2ccc(C(F)(F)F)cc2)s1 [Compound 47, 3-Phenyl-N-[5-(4-trifluoromethyl-benzyl)-thiazol-2-yl]-propionamide] | 57.2% | 94.5% | – | 55.4%
O=C(CCc1ccccc1)Nc1ncc(-c2ccc(F)cc2)cn1 [Compound 99, N-[5-(4-Fluoro-phenyl)-pyrimidin-2-yl]-3-phenyl-propionamide] | 55.8% | 95.8% | 78.3% | –
Cc1ccc(CCC(=O)Nc2ncc(Br)cc2C)o1 [Compound 124, N-(5-Bromo-3-methyl-pyridin-2-yl)-3-(5-methyl-furan-2-yl)-propionamide] | 84.9% | 93.3% | 74.8% | –
COc1ccc(Cc2cnc(NC(=O)CCc3cccnc3)s2)c(OC)c1OC [Compound 53, 3-Pyridin-3-yl-N-[5-(2,3,4-trimethoxy-benzyl)-thiazol-2-yl]-propionamide] | 62.2% | 96.7% | – | 78.7%
COc1ccc(Cc2cnc(NC(=O)CCc3ccccc3)s2)cc1 [Compound 9, N-[5-(4-Methoxy-benzyl)-thiazol-2-yl]-3-phenyl-propionamide] | 79.0% | 96.1% | – | 77.5%
Cc1ccc(CCC(=O)Nc2ncc(-c3ccc(N(C)C)cc3)cn2)o1 [Compound 106, N-[5-(4-Dimethylamino-phenyl)-pyrimidin-2-yl]-3-(5-methyl-furan-2-yl)-propionamide] | 69.3% | 84.6% | 70.1% | –
Cc1ccc(CCC(=O)Nc2ncc(-c3ccccc3)cc2C)o1 [Compound 118, 3-(5-Methyl-furan-2-yl)-N-(3-methyl-5-phenyl-pyridin-2-yl)-propionamide] | 81.4% | 93% | 99.7% | –
COc1ccc(Cc2cnc(NC(=O)CCc3ccccc3)s2)c(OC)c1OC [Compound 52, 3-Phenyl-N-[5-(2,3,4-trimethoxy-benzyl)-thiazol-2-yl]-propionamide] | 51.2% | 94.5% | – | 75.4%
Cc1ccc(CCC(=O)Nc2ncc(-c3ccccc3)cn2)o1 [Compound 92, 3-(5-Methyl-furan-2-yl)-N-(5-phenyl-pyrimidin-2-yl)-propionamide] | 74.0% | 97.1% | 94.7% | –
COc1ccc(Cc2cnc(NC(=O)CCc3ccc(-c4ccccc4)cc3)s2)c(OC)c1OC [Compound 55, 3-Biphenyl-4-yl-N-[5-(2,3,4-trimethoxy-benzyl)-thiazol-2-yl]-propionamide] | 54.9% | 95.1% | – | 68.8%
Cc1ccc(CCC(=O)Nc2ccc(-n3ccnc3)cn2)o1 [Compound 77, N-(5-Imidazol-1-yl-pyridin-2-yl)-3-(5-methyl-furan-2-yl)-propionamide] | 60.8% | 87.3% | 99.8% | –
